Measurements as given in ChEMBL document CHEMBL5726188, “Triazolo[4,5-D]pyrimidines” (2019).

Assays:
[1] = target: Cannabinoid receptor 1 (Homo sapiens, UniProt P21554); assay: (§1) cAMP Assay: CHO cells expressing human CB1 or CB2 receptors are seeded 17-24 hours prior to the experiment 50.000 cells per well in a black 96 well plate with flat clear bottom (Corning Costar #3904) in DMEM (Invitrogen No. 31331), 1×HT supplement, with 10% fetal calf serum and incubated at 5% CO2 and 37° C. in a humidified incubator. The growth medium was exchanged with Krebs Ringer Bicarbonate buffer with 1 mM IBMX and incubated at 30° C. for 30 min. Compounds were added to a final assay volume of 100 μl and incubated for 30 min at 30° C. Using the cAMP-Nano-TRF detection kit the assay (Roche Diagnostics) was stopped by the addition of 50 μl lysis reagent (Tris, NaCl, 1.5% Triton X100, 2.5% NP40, 10% NaN3) and 50 μl detection solutions (20 μM mAb Alexa700-cAMP 1:1, and 48 μM Ruthenium-2-AHA-cAMP) and shaken for 2 h at room temperature. The time-resolved energy transfer is measured by a TRF reader (Evotec Technologies GmbH), equipped with a ND:YAG laser as excitation source. The plate is measured twice with the excitation at 355 nm and at the emission with a delay of 100 ns and a gate of 100 ns, total exposure time 10 s at 730 (bandwidth 30 nm) or 645 nm (bandwidth 75 nm), respectively.
Sequence of Cannabinoid receptor 1 (P21554 whole entry): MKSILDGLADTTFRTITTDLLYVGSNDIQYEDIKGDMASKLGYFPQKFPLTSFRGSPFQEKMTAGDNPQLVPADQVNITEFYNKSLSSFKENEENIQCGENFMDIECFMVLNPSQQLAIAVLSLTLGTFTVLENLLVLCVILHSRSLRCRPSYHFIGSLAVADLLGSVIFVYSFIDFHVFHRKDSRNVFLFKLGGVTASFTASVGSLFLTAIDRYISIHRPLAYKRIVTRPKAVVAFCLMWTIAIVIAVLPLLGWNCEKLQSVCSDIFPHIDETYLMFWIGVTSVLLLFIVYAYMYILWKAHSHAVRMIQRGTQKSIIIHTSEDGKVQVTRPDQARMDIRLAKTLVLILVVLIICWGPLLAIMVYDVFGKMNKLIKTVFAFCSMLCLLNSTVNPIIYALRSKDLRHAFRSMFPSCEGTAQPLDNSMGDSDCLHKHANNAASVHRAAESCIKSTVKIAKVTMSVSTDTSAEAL

[2] = target: Cannabinoid receptor 2 (Homo sapiens, UniProt P34972); assay: as §1
Sequence of Cannabinoid receptor 2 (P34972 whole entry): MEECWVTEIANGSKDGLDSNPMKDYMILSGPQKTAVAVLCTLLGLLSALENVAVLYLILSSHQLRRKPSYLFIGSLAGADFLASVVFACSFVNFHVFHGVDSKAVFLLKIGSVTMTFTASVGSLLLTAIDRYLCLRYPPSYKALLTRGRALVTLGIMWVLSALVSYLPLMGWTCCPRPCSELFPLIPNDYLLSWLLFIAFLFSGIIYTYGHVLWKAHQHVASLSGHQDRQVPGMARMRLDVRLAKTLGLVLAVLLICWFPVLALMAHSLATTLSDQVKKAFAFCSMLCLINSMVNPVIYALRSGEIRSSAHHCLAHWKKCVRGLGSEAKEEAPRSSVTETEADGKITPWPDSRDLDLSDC

Row | SMILES | EC50 [1] [nM] | EC50 [2] [nM]
1 | Cn1nccc1-c1nc(C(C)(C)C)nc2c1nnn2CCC(F)(F)F | > 10000 | 131
2 | Cc1nonc1Cn1nnc2c(-c3ccc(F)nc3)nc(C(C)(C)C)nc21 | > 10000 | 639
